Publication PMC8201479, “Trisubstituted Pyrrolinones as Small-Molecule Inhibitors Disrupting the Protein–RNA Interaction of LIN28 and Let-7” (ACS Medicinal Chemistry Letters, 2021)
pIC50: −log10 of the molar value. Like-named read-outs stand apart in the source and are kept apart here.

Columns and labels:
LIN28–let-7 interaction [1] = target: T1, LIN28–let-7 interaction (Homo sapiens, UniProt Q9H9Z2); assay: Fluorescence polarization (FP) assay, LIN28A (residues 16–187) and FAM-labeled preE-let-7f-1; assay type: binding; conditions: for pIC50: Table 1, quadruplicate, eight concentrations, read-out: IC50, LIN28–let-7 inhibitory activity; for FP, Average (mP): raw data Table S3, four replicates
T1 construct: Purified LIN28A (residues 16–187) was incubated at a concentration of 200 nM; His-tag (cleaved yes); made in house; host or cells: Escherichia coli BL21(DE3)
T1 sequence (Q9H9Z2 16-187): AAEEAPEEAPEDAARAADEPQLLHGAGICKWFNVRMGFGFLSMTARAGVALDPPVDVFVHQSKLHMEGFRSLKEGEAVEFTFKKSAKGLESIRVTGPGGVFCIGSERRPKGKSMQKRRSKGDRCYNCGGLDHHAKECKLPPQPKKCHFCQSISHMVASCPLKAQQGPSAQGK

LIN28–let-7 interaction [2] = target: T1, LIN28–let-7 interaction; assay: as above; assay type: binding
Method: Protein expression and purification.
19 vector and overexpressed in Escherichia coli BL21(DE3). The culture was incubated at 37 °C until
the absorbance at 600 nm (OD600) reached 0.5–0.7. IPTG was added to a final concentration of
300 µM, and overnight induction was performed at 18 °C. Cells were harvested by centrifugation.
The bacterial pellet was resuspended in lysis buffer (50 mM NaH2PO4, pH 7.5, 300 mM NaCl,
0.1 mM PMSF) and lysed using a Microfluidizer (Microfluidics) . A fresh portion of 0.1 mM PMSF
and Triton X-100 (1% final concentration) were added. The lysate was cleared by ultra centrifugation
at 30000 xg and 4 °C for 1 h. The protein purification was performed using immobilized nickel
300 mM NaCl and 5 % glycerol. Gradient elution was performed with a maximum of 0.5 M imidazole.
Subsequently, the affinity tag was cleaved using His6 -TEV-protease and the protease and unspecific
binders were eliminated by a second nickel affinity chromatography. After protein concentration
LIN28A containing fractions were concentrated and applied to a High Load Superdex 75 pg 16/600
column (GE Healthcare) with gel-filtration buffer (30 mM NaH2PO4, pH 7.5, 50 mM NaCl, 5%
glycerol, 2 mM β-ME). The purified protein was concentrated and stored at -80 °C until further
Fluorescence polarization. The fluorescence polarization assay was performed in black low volume
IC50 measurements were performed with three technical
minutes with compound concentrations ranging from 0.3 nM to 100 µM in FP assay buffer (20 mM
Tris, pH 7, 100 mM NaCl, 5 mM MgCl2, 2 mM glutathione (reduced), 0.1 % NP-40). Subsequently,
FAM-labeled preE-let-7f-1 (mus musculus) ([…]-
FAM, synthesized by IDT) was added to a final concentration of 2 nM. Fluorescence polarization
was detected after incubation at room temperature using a TECAN Spark plate reader. Half maximal
inhibitory concentrations (IC50) were determined using GraphPad Prism 7. […]

[3] = starting from 30 μM, extrapolated based on the observed IC50 curves
[4] = starting from a maximum of 60 μM, extrapolated based on the observed IC50 curves
[5] = starting from a maximum concentration of 60 μM

| Structure (SMILES) | pIC50 (LIN28–let-7 interaction [1]; [3]) | pIC50 (LIN28–let-7 interaction [2]) | pIC50 (LIN28–let-7 interaction [1]; [4]) | FP, Average (mP) (LIN28–let-7 interaction [1]; 0.041 μM compound) | FP, Average (mP) (LIN28–let-7 interaction [1]; 0.123 μM compound) | FP, Average (mP) (LIN28–let-7 interaction [1]; 0.368 μM compound) | FP, Average (mP) (LIN28–let-7 interaction [1]; 1.103 μM compound) | FP, Average (mP) (LIN28–let-7 interaction [1]; 3.125 μM compound) | FP, Average (mP) (LIN28–let-7 interaction [1]; 9.375 μM compound) | FP, Average (mP) (LIN28–let-7 interaction [1]; 29.688 μM compound) | FP, Average (mP) (LIN28–let-7 interaction [1]; 59.375 μM compound) | activity in the FP assay (LIN28–let-7 interaction [2]) | pIC50 (LIN28–let-7 interaction [1]; [5]) |
| --- | --- | --- | --- | --- | --- | --- | --- | --- | --- | --- | --- | --- | --- |
| O=C(O)c1ccc(C2C(C(=O)c3ccc(Br)cc3)=C(O)C(=O)N2c2ccc(C(=O)O)cc2)cc1 (centres unmarked) [C895] | < 4.00 |  |  |  |  |  |  |  |  |  |  |  |  |
| O=C(O)c1ccc(C2C(C(=O)c3ccc(Br)cc3)=C(O)C(=O)N2c2cccc(-c3nnn[nH]3)c2)cc1 (centres unmarked) [C896] | < 4.00 |  |  |  |  |  |  |  |  |  |  |  |  |
| O=C(O)c1cccc(N2C(=O)C(O)=C(C(=O)c3ccccc3)C2c2ccc(-c3nccs3)cc2)c1 (centres unmarked) [C897] | 4.40 to 4.52 |  |  |  |  |  |  |  |  |  |  |  |  |
| O=C(C1=C(O)C(=O)N(c2cccc(-c3nnn[nH]3)c2)C1c1ccc(-c2nccs2)cc1)c1ccccc1 (centres unmarked) [C898] | < 4.00 |  |  |  |  |  |  |  |  |  |  |  |  |
| O=C(O)c1ccc(N2C(=O)C(O)=C(C(=O)c3ccc(Br)cc3)C2c2ccc(-c3nccs3)cc2)cc1 (centres unmarked) [C899] |  | < 4.00 |  |  |  |  |  |  |  |  |  |  |  |
| COc1ccc(C(=O)C2=C(O)C(=O)N(c3cccc(C(=O)O)c3)C2c2ccc(-c3nccs3)cc2)cc1 (centres unmarked) [C900] | < 4.00 |  |  |  |  |  |  |  |  |  |  |  |  |
| COc1ccc(C(=O)C2=C(O)C(=O)N(c3cccc(-c4nnn[nH]4)c3)C2c2ccc(-c3nccs3)cc2)cc1 (centres unmarked) [C901] | < 4.00 |  |  |  |  |  |  |  |  |  |  |  |  |

More lines, now with the values ahead:

| pIC50 (LIN28–let-7 interaction [1]; [3]) | pIC50 (LIN28–let-7 interaction [2]) | pIC50 (LIN28–let-7 interaction [1]; [4]) | FP, Average (mP) (LIN28–let-7 interaction [1]; 0.041 μM compound) | FP, Average (mP) (LIN28–let-7 interaction [1]; 0.123 μM compound) | FP, Average (mP) (LIN28–let-7 interaction [1]; 0.368 μM compound) | FP, Average (mP) (LIN28–let-7 interaction [1]; 1.103 μM compound) | FP, Average (mP) (LIN28–let-7 interaction [1]; 3.125 μM compound) | FP, Average (mP) (LIN28–let-7 interaction [1]; 9.375 μM compound) | FP, Average (mP) (LIN28–let-7 interaction [1]; 29.688 μM compound) | FP, Average (mP) (LIN28–let-7 interaction [1]; 59.375 μM compound) | activity in the FP assay (LIN28–let-7 interaction [2]) | pIC50 (LIN28–let-7 interaction [1]; [5]) | Structure (SMILES) |
| --- | --- | --- | --- | --- | --- | --- | --- | --- | --- | --- | --- | --- | --- |
|  |  | < 4.00 | 110.75 | 116.25 | 115.75 | 116.25 | 107.00 | 111.25 | 107.25 | 98.68 |  |  | O=C(C1=C(O)C(=O)N(c2ccc(C(=O)O)c(O)c2)C1c1ccc(-c2nccs2)cc1)c1ccc(Br)cc1 (centres unmarked) [PH-30] |
|  |  | < 4.00 | 115.25 | 112.75 | 116.50 | 109.50 | 110.25 | 104.00 | 104.65 | 93.48 |  |  | O=C(C1=C(O)C(=O)N(c2ccc(O)cc2)C1c1ccc(-c2nccs2)cc1)c1ccc(Br)cc1 (centres unmarked) [PH-35] |
|  |  | < 4.00 | 115.00 | 116.25 | 113.50 | 112.00 | 104.83 | 108.50 | 96.03 | 79.35 | inactive |  | O=C(O)c1ccc(C2C(C(=O)c3ccccc3)=C(O)C(=O)N2c2ccc(O)cc2)cc1 (centres unmarked) [PH-36] |
|  |  |  | 113.25 | 106.48 | 115.75 | 111.25 | 111.50 | 95.58 | 86.53 | 71.50 |  | 4.39 | O=C(C1=C(O)C(=O)N(c2ccc(O)c([N+](=O)[O-])c2)C1c1ccc(-c2nccs2)cc1)c1ccccc1 (centres unmarked) [PH-37] |
|  |  |  | 113.00 | 113.25 | 117.75 | 113.25 | 101.00 | 86.53 | 50.30 | 49.00 |  | 4.80 | O=C(O)c1ccc(C2C(C(=O)c3ccccc3)=C(O)C(=O)N2c2ccc(C(=O)O)c(O)c2)cc1 (centres unmarked) [PH-38] |
|  |  |  | 110.50 | 109.50 | 109.75 | 98.88 | 79.00 | 55.18 | 37.25 | 33.68 |  | 5.30 | O=C(C1=C(O)C(=O)N(c2ccc(O)c(C(=O)O)c2)C1c1ccc(-c2nccs2)cc1)c1ccco1 (centres unmarked) [PH-43] |
|  |  |  | 96.70 | 118.00 | 115.00 | 107.75 | 92.95 | 82.98 | 63.53 | 54.00 |  | 4.92 | COc1ccc(C(=O)C2=C(O)C(=O)N(c3ccc(O)c(C(=O)O)c3)C2c2ccc(-c3nccs3)cc2)cc1OC (centres unmarked) [PH-44] |
